Experimental data taken from patent US20030232101A1, “Topical formulations of resorcinols and cannibinoids and methods of use” (Immugen Pharmaceuticals, Inc., priority 2002, published 2003).
Where two headings read alike, the source gives them in different places.

Tests used:
[1] = Compound toxicity in the attachment assay, sister plates, MTS dye reduction; assay type: cell-based; details: human, HeLa CD4 LTR β-gal cells, read-out: TC50
Description: (§1) At assay termination the assay plates were stained with the soluble tetrazolium-based dye MTS (CellTiter96® Reagent Promega) to determine cell viability and quantify compound toxicity. MTS is metabolized by the mitochondria enzymes of metabolically active cells to a soluble formazan product, allowing the rapid quantitative analysis cell viability and compound cytotoxicity. […] At termination of the assay 20 μL of MTS reagent was added per well and incubated for 4 h at 37° C. Adhesive plate sealers were used in place of the lids, the sealed plate was inverted several times to mix the soluble formazan product and the plate was read spectrophotometrically at 490 nm with a Molecular Devices Vmax plate reader.
The attachment assay was performed with the HeLa CD4 LTR β-gal cells available from the AIDS Research and Reference Reagent Repository. […] HeLa CD4 LTR β-gal cells express cell surface CD4 and contain an LTR β-galactosidase reporter construct. Upon infection either the Tat protein incorporated into the virion or new Tat produced following virus integration and transcription trans-activates the LTR β-gal reporter, leading to expression of the β-galactosidase enzyme. HeLa CD4 LTR β-gal cells are routinely cultured with the required selection antibiotics and screened for mycoplasma contamination. Twenty-four h prior to initiation of the assay cells were trypsinized, counted and 1×10^4 cells placed in a 0.2 cm well in media without selection antibiotics. […] A known titer of virus was then added to the wells and the incubation continued for 1 h. At the end of the incubation the wells were washed 6 times with media and the culture continued for 48 h. At 48 h the wells were washed one time with PBS and β-galactosidase enzyme expression determined by chemiluminescence per manufacturers instructions (Tropix Gal-screen™, Tropix, Bedford, Mass.). Compound toxicity was monitored on sister plates using MTS dye reduction.

[2] = PBMC cell viability in time of addition assay (MTS / Trypan Blue); assay type: cell-based, Human; details: human, read-out: TC50
From the text: (§2) Human peripheral blood mononuclear cells (PBMCs) from a minimum of 2 donors, that have been blasted with PHA and IL-2, were counted, viability determined by Trypan Blue dye exclusion and mixed in equal ratios. Pooled donors were used to minimize the variability observed between individual donors which results from quantitative and qualitative differences in HIV infection and overall response to the PHA and IL-2 of primary lymphocyte populations. The cells were resuspended at 1×10^6 cells /mL in RPMI 1640 without phenol red supplemented with 15% Fetal Bovine Serum (heat inactivated), 2 mM L-glutamine, 100 U/mL penicillin, 100 μg/mL streptomycin, 10 μg/mL gentamycin and IL-2 (20 U/mL, R&D Systems, Minneapolis, Minn.). Fifty microliters of cells were then distributed to the inner 60 wells of a 96 well round bottom microtiter culture plate in a standard format developed by the Infectious Disease Research department of Southern Research Institute. Each plate contains cell control wells (cells only), virus control wells (cells plus virus), and experimental wells (drug plus cells plus virus). Alternatively, cells were cultured in T25 cm^2 or T75 cm^2 tissue culture flasks at a starting density of 1×10^6 cells per ml. Serially diluted compounds were added to the microtiter plate or tissue culture flask followed by the appropriate pre-titered strain of HIV-1. For virus replication inhibition experiments the HIV-1 strain RoJo was used. This is a low passage presumable subtype B pediatric isolate with a syncytium inducing (SI) phenotype in MT-2 cells isolated by Southern Research Institute personnel. All samples were assayed in triplicate where possible with an accompanying determination of compound toxicity. The final volume per well in the microtiter plates was 200 μL. The final volume in the tissue culture flask varied depending upon experimental design and flask size. Assays were incubated for 6 days in a humidified atmosphere at 37° C., 5% CO^2, after which supernatants were collected, for analysis of RT activity and cell viability by MTS dye reduction. Culture were also examined microscopically, any abnormalities noted, and in the case of tissue culture flasks cell counts and viability determined by Trypan Blue Dye exclusion.
(§3) Time of addition assays were performed with PBMCs in two ways. For both assays, PBMCs were isolated and cultured under the conditions as described above. Time of addition assays were carried out in either a tissue culture flask format (T-75 cm^2) or in microtiter wells. In both cases due to the lack of plastic adherence and heterogeneity of the PBMC population for susceptibility to infection, it was not possible to use complete removal of virus following a timed adsorption to synchronize the infection and limit the assay to a single round of infection. Therefore, serial washing by partial removal of the media was used to reduce the concentration of virus and compound (if required) in the assay. Compound addition in relationship to antiviral activity was either assessed over a short addition interval immediately before or after virus addition or for up to 72 h post infection. For all assays virus replication was assessed at 6 days of culture by determining RT expression in cell-free supernatants. In the tissue culture flask format cells were counted and Trypan Blue Dye exclusion used to monitor compound cytotoxicity. Cell viability in the 96 well microtiter plate format was determined by MTS dye reduction. AZT was used as a positive control.
as §1, with “Adhesive plate sealers were used in place of the lids, the sealed plate was inverted several times to mix the soluble formazan product and the plate was read spectrophotometrically at 490 nm with a Molecular Devices Vmax plate reader.” left out

[3] = system: peripheral blood mononuclear cells (PBMCs); experiment: as above; assay type: cell-based, Human; details: read-out: TC50 (the source's name)
From the text: as §2, §3
as §1, with “Adhesive plate sealers were used in place of the lids, the sealed plate was inverted several times to mix the soluble formazan product and the plate was read spectrophotometrically at 490 nm with a Molecular Devices Vmax plate reader.” left out

Row | SMILES | CC50 at 48 h ([1]; Experiment 1, pretreat 0 h) [µM] | CC50 at 48 h ([1]; Experiment 1, pretreat 4 h) [µM] | CC50 at 48 h ([1]; Experiment 1, pretreat 24 h) [µM] | CC50 at 48 h ([1]; Experiment 2, pretreat 0 h) [µM] | CC50 at 48 h ([1]; Experiment 2, pretreat 4 h) [µM] | CC50 at 48 h ([1]; Experiment 2, pretreat 24 h) [µM] | CC50 at 6 days ([2]; treatment −4 h pre) [µM] | CC50 ([3]; treatment 6 h post) [µM] | CC50 ([3]; treatment at infection) [µM] | CC50 at 6 days ([2]; treatment at infection) [µM] | CC50 ([3]; treatment −4 h pre) [µM]
1 | C=C(C)[C@@H]1CCC(C)=C[C@H]1c1c(O)cc(CCCCC)cc1O [Cannabidiol, reference compound] | > 50 | > 50 | > 50 | > 50 | 41 | 33 | > 100 | > 100 | > 100 |  | 
2 | COc1cc(C(C)(C)CCCC(C)C)cc(OC)c1OC [IMG507, 1-(1,1,5-Trimethylhexyl)-3,4,5-trimethoxybenzene] | > 50 | > 50 | > 50 | > 50 | > 50 | > 50 |  | > 100 |  | > 100 | > 100
3 | CC(C)=CCCC1(C)CCc2c(O)cc(C(C)(C)CCCC(C)C)cc2O1 (stereo not drawn) [IMG508, 3,4-Dihydro-2-methyl-2-(4-methyl-3-pentenyl)-7-(1,1,5-trimethylhexyl)-2H-1-benzopyran-5-ol] | > 50 | > 50 | > 50 | > 50 | 29 | 12.2 | > 100 | > 100 | > 100 |  | 
4 | CC1=CCC2C(C1)c1c(O)cc(C(C)(C)CCCC(C)C)cc1OC2(C)C (stereo not drawn) [IMG509, 3-Norpentyl-3-(1,1,5-trimethylhexyl)-Δ8-tetrahydrocannabinol] | > 50 | > 50 | > 50 | > 50 | 37 | 14.9 | > 100 | > 100 | > 100 |  | 
5 | Cc1c(O)cc(C(C)(C)CCCC(C)C)cc1O [IMG510, 2-Methyl-5-(1,1,5-trimethylhexyl)resorcinol] | > 50 | > 50 | > 50 | > 50 | > 50 | 39.4 | > 100 | > 100 | > 100 |  | 
6 | Cc1ccc2c(c1)-c1c(O)cc(C(C)(C)CCCC(C)C)cc1OC2(C)C [IMG511, 3-Norpentyl-3-(1,1,5-trimethylhexyl)cannabinol] | > 50 | > 50 | > 50 | > 50 | > 50 | 11.1 | > 100 | > 100 | > 100 |  | 
